Test results reported in PubChem BioAssay AID2060511 (Molecular Pharmacology Branch, DTP, NCI, 2025).

System: 422866-222-R5-J1-PDC spheroids with HUVEC/MSC, viability
Assay: Anticancer human tumor 422866-222-R5-J1-PDC patient-derived pancreatic adenocarcinoma cell line growth inhibition [GQUAD]
Details: for IC50: curve of first compound; for viability, T/C: stronger effect = lower value
Outline: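 Tumor cells were grown as complex spheroids with HUVEC endothelial cells and mesenchymal stem cells as stroma. G-quadruplex stabilizers were combined with targeted agents over half-log dilutions from near the clinical Cmax, or from 10 microM.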

[1] = second compound 0.0316 µM, first compound 0.000999 µM
[2] = second compound 0.0316 µM, first compound 0.00316 µM
[3] = second compound 0.0316 µM, first compound 0.00999 µM
[4] = second compound 0.0316 µM, first compound 0.0316 µM
[5] = second compound 0.0316 µM, first compound 0.0999 µM
[6] = second compound 0.0316 µM, first compound 0.316 µM
[7] = second compound 0.1 µM, first compound 0.000999 µM
[8] = second compound 0.1 µM, first compound 0.00316 µM
[9] = second compound 0.1 µM, first compound 0.00999 µM
[10] = second compound 0.1 µM, first compound 0.0316 µM
[11] = second compound 0.1 µM, first compound 0.0999 µM
[12] = second compound 0.1 µM, first compound 0.316 µM
[13] = second compound 0.316 µM, first compound 0.000999 µM
[14] = second compound 0.316 µM, first compound 0.00316 µM
[15] = second compound 0.316 µM, first compound 0.00999 µM
[16] = second compound 0.316 µM, first compound 0.0316 µM
[17] = second compound 0.316 µM, first compound 0.0999 µM
[18] = second compound 0.316 µM, first compound 0.316 µM
[19] = second compound 1 µM, first compound 0.000999 µM
[20] = second compound 1 µM, first compound 0.00316 µM
[21] = second compound 1 µM, first compound 0.00999 µM
[22] = second compound 1 µM, first compound 0.0316 µM
[23] = second compound 1 µM, first compound 0.0999 µM
[24] = second compound 1 µM, first compound 0.316 µM
[25] = second compound 3.16 µM, first compound 0.000999 µM
[26] = second compound 3.16 µM, first compound 0.00316 µM
[27] = second compound 3.16 µM, first compound 0.00999 µM
[28] = second compound 3.16 µM, first compound 0.0316 µM
[29] = second compound 3.16 µM, first compound 0.0999 µM
[30] = second compound 3.16 µM, first compound 0.316 µM
[31] = second compound 10 µM, first compound 0.000999 µM
[32] = second compound 10 µM, first compound 0.00316 µM
[33] = second compound 10 µM, first compound 0.00999 µM
[34] = second compound 10 µM, first compound 0.0316 µM
[35] = second compound 10 µM, first compound 0.0999 µM
[36] = second compound 10 µM, first compound 0.316 µM
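Further: spheroids exposed to compounds for seven days before reading.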
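Wherever viability, T/C is given: percent viability relative to DMSO vehicle control taken as 100%.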

Cc1[nH]c2ccccc2c1CCNCc1ccc(/C=C/C(=O)NO)cc1 + CN(C)c1ccc(Nc2c3ccc(NC(=O)CCN4CCCC4)cc3nc3cc(NC(=O)CCN4CCCC4)ccc23)cc1
IC50 (second compound 0.0316 µM): > 316 nM
IC50 (second compound 0.1 µM): > 316 nM
IC50 (second compound 0.316 µM): > 316 nM
IC50 (second compound 1 µM): > 316 nM
IC50 (second compound 3.16 µM): > 316 nM
IC50 (second compound 10 µM): > 316 nM
viability, T/C [1]: 118%
viability, T/C [2]: 98.7%
viability, T/C [3]: 116%
viability, T/C [4]: 83.2%
viability, T/C [5]: 54.3%
viability, T/C [6]: 56.8%
viability, T/C [7]: 98.3%
viability, T/C [8]: 102%
viability, T/C [9]: 119%
viability, T/C [10]: 89.9%
viability, T/C [11]: 73.5%
viability, T/C [12]: 61.5%
viability, T/C [13]: 105%
viability, T/C [14]: 102%
viability, T/C [15]: 98.7%
viability, T/C [16]: 76%
viability, T/C [17]: 69.4%
viability, T/C [18]: 57%
viability, T/C [19]: 77.3%
viability, T/C [20]: 91.9%
viability, T/C [21]: 131%
viability, T/C [22]: 112%
viability, T/C [23]: 63.3%
viability, T/C [24]: 52%
viability, T/C [25]: 89.5%
viability, T/C [26]: 97.3%
viability, T/C [27]: 102%
viability, T/C [28]: 103%
viability, T/C [29]: 80.4%
viability, T/C [30]: 56.4%
viability, T/C [31]: 96%
viability, T/C [32]: 95.4%
viability, T/C [33]: 98.8%
viability, T/C [34]: 109%
viability, T/C [35]: 75.2%
viability, T/C [36]: 53.7%

COc1cc(C2c3cc4c(cc3C(OC3OC5COC(C)OC5C(O)C3O)C3COC(=O)C23)OCO4)cc(OC)c1O (stereo unspecified) + CN(C)c1ccc(Nc2c3ccc(NC(=O)CCN4CCCC4)cc3nc3cc(NC(=O)CCN4CCCC4)ccc23)cc1
IC50 (second compound 0.0316 µM): 1890 nM
IC50 (second compound 0.1 µM): 1520 nM
IC50 (second compound 0.316 µM): 3330 nM
IC50 (second compound 1 µM): 926 nM
IC50 (second compound 3.16 µM): 3090 nM
IC50 (second compound 10 µM): 4390 nM
viability, T/C [4]: 97.3%
viability, T/C (second compound 0.0316 µM, first compound 0.1 µM): 89%
viability, T/C [6]: 84.5%
viability, T/C (second compound 0.0316 µM, first compound 1 µM): 57.5%
viability, T/C (second compound 0.0316 µM, first compound 3.16 µM): 41.4%
viability, T/C (second compound 0.0316 µM, first compound 10 µM): 45.4%
viability, T/C [10]: 116%
viability, T/C (second compound 0.1 µM, first compound 0.1 µM): 86.6%
viability, T/C [12]: 70.9%
viability, T/C (second compound 0.1 µM, first compound 1 µM): 54.1%
viability, T/C (second compound 0.1 µM, first compound 3.16 µM): 40.9%
viability, T/C (second compound 0.1 µM, first compound 10 µM): 38.2%
viability, T/C [16]: 101%
viability, T/C (second compound 0.316 µM, first compound 0.1 µM): 92.9%
viability, T/C [18]: 73.8%
viability, T/C (second compound 0.316 µM, first compound 1 µM): 59.2%
viability, T/C (second compound 0.316 µM, first compound 3.16 µM): 50.7%
viability, T/C (second compound 0.316 µM, first compound 10 µM): 46.3%
viability, T/C [22]: 92%
viability, T/C (second compound 1 µM, first compound 0.1 µM): 79.4%
viability, T/C [24]: 63.9%
viability, T/C (second compound 1 µM, first compound 1 µM): 47.1%
viability, T/C (second compound 1 µM, first compound 3.16 µM): 44.4%
viability, T/C (second compound 1 µM, first compound 10 µM): 38.1%
viability, T/C [28]: 85.7%
viability, T/C (second compound 3.16 µM, first compound 0.1 µM): 76.2%
viability, T/C [30]: 65.9%
viability, T/C (second compound 3.16 µM, first compound 1 µM): 56.2%
viability, T/C (second compound 3.16 µM, first compound 3.16 µM): 49.9%
viability, T/C (second compound 3.16 µM, first compound 10 µM): 46%
viability, T/C [34]: 73.2%
viability, T/C (second compound 10 µM, first compound 0.1 µM): 80.8%
viability, T/C [36]: 67.1%
viability, T/C (second compound 10 µM, first compound 1 µM): 63.9%
viability, T/C (second compound 10 µM, first compound 3.16 µM): 55.9%
viability, T/C (second compound 10 µM, first compound 10 µM): 38.2%

Cn1ncnc1[C@H]1c2n[nH]c(=O)c3cc(F)cc(c23)N[C@@H]1c1ccc(F)cc1 + Cc1[nH]c2ccc(F)cc2c1-c1nc2c3cccnc3c3ncccc3c2[nH]1
IC50 (second compound 0.0316 µM): > 316 nM
IC50 (second compound 0.1 µM): > 316 nM
IC50 (second compound 0.316 µM): > 316 nM
IC50 (second compound 1 µM): > 316 nM
IC50 (second compound 3.16 µM): > 316 nM
IC50 (second compound 10 µM): > 316 nM
viability, T/C [1]: 92.4%
viability, T/C [2]: 92.3%
viability, T/C [3]: 105%
viability, T/C [4]: 91.8%
viability, T/C [5]: 86.5%
viability, T/C [6]: 81.9%
viability, T/C [7]: 99.5%
viability, T/C [8]: 102%
viability, T/C [9]: 102%
viability, T/C [10]: 89.5%
viability, T/C [11]: 97.3%
viability, T/C [12]: 86.8%
viability, T/C [13]: 105%
viability, T/C [14]: 114%
viability, T/C [15]: 83.2%
viability, T/C [16]: 91.2%
viability, T/C [17]: 91.4%
viability, T/C [18]: 97.3%
viability, T/C [19]: 89.6%
viability, T/C [20]: 109%
viability, T/C [21]: 104%
viability, T/C [22]: 108%
viability, T/C [23]: 94.3%
viability, T/C [24]: 80.8%
viability, T/C [25]: 93.1%
viability, T/C [26]: 82.8%
viability, T/C [27]: 80.4%
viability, T/C [28]: 78.8%
viability, T/C [29]: 94.3%
viability, T/C [30]: 81.9%
viability, T/C [31]: 87.5%
viability, T/C [32]: 92.7%
viability, T/C [33]: 87%
viability, T/C [34]: 97.7%
viability, T/C [35]: 81.1%
viability, T/C [36]: 71.1%
